Our source for the inhibition in vivo and Activity values is ChEMBL document CHEMBL3784981, “Anti-inflammatory, analgesic and antioxidant activities of novel kyotorphin-nitroxide hybrid molecules” (Bioorg Med Chem Lett, 2016).

For orientation: inhibition in vivo means how much of the control response was suppressed.

Format in all cases: functional
In test [1] the test system is Mus musculus. Kind of test: Antiinflammatory activity in ICR mouse assessed as inhibition of xylene-induced ear edema at 0.1 umol/kg, po administered 30 mins prior to xylene challenge measured after 2hrs. The settings on record: Mus musculus, ICR, Ear, po.
Test [2] has as its system Mus musculus. Kind of test: Analgesic activity in ICR mouse assessed as pain threshold at 1 umol/kg administered through oral gavage after 120 mins by tail flick method. A general note: Thermal pain tests record how soon the animal reacts.
Test [3] deals with Mus musculus. Briefly: Analgesic activity in ICR mouse assessed as pain threshold at 1 umol/kg administered through oral gavage after 180 mins by tail flick method.
In test [4] the test system is Mus musculus. Kind of test: Analgesic activity in ICR mouse assessed as pain threshold at 1 umol/kg administered through oral gavage after 90 mins by tail flick method.
Test [5] concerns Mus musculus. Briefly: Analgesic activity in ICR mouse assessed as pain threshold at 1 umol/kg administered through oral gavage after 150 mins by tail flick method.
The subject of test [6] is Mus musculus. Kind of test: Analgesic activity in ICR mouse assessed as pain threshold at 1 umol/kg administered through oral gavage after 60 mins by tail flick method.
Test [7] concerns Mus musculus. Briefly: Analgesic activity in ICR mouse assessed as pain threshold at 1 umol/kg administered through oral gavage after 30 mins by tail flick method.
Test [8] deals with Mus musculus. Kind of test: Analgesic activity in ICR mouse assessed as pain threshold at 165 umol/kg administered through oral gavage after 90 mins by tail flick method.
In test [9] the test system is Mus musculus. Kind of test: Analgesic activity in ICR mouse assessed as pain threshold at 165 umol/kg administered through oral gavage after 150 mins by tail flick method.
Test [10] concerns Mus musculus. Kind of test: Analgesic activity in ICR mouse assessed as pain threshold at 165 umol/kg administered through oral gavage after 30 mins by tail flick method.
Test [11] relates to Mus musculus. Briefly: Analgesic activity in ICR mouse assessed as pain threshold at 165 umol/kg administered through oral gavage after 60 mins by tail flick method.
Test [12] relates to Mus musculus. Briefly: Analgesic activity in ICR mouse assessed as pain threshold at 165 umol/kg administered through oral gavage after 120 mins by tail flick method.
The test system of test [13] is Mus musculus. Kind of test: Analgesic activity in ICR mouse assessed as pain threshold at 165 umol/kg administered through oral gavage after 180 mins by tail flick method.

As for `CC1(C)N([O])C(c2ccc(OCC(=O)O)cc2)=[N+]([O-])C1(C)C`, in the test on Mus musculus [1], the inhibition in vivo at 0.1 µmol/kg came out at 29.7%. For the same compound, the Activity was determined as 23.18% in the test on Mus musculus [2]; 13.05% with Mus musculus [3]; 20.97% with Mus musculus [4]; 21.11% with Mus musculus [5]; 12.31% with Mus musculus [6]; 9.1% in the test on Mus musculus [7].

With `NC(N)=NCCC[C@H](NC(=O)[C@@H](N)Cc1ccc(O)cc1)C(=O)O` [KYOTORPHIN], in the test with Mus musculus [1], the inhibition in vivo at 0.1 µmol/kg stood at 25.9%. For the same compound, the Activity is listed as 12.32% with Mus musculus [2]; 10.55% in the test with Mus musculus [3]; 25.35% with Mus musculus [4]; 12.11% in the test with Mus musculus [5]; 22.78% in the test on Mus musculus [6]; 16.08% in the test on Mus musculus [7].

As for `CC(=O)Oc1ccccc1C(=O)O` [ASPIRIN], the inhibition in vivo at 0.1 µmol/kg in the test with Mus musculus [1] was found to be 49.9%. Moreover, the Activity in the test on Mus musculus [8] is on record as 53.2%; with Mus musculus [9] it was 15.84%; in the test on Mus musculus [10], 33.21%; with Mus musculus [11], 66.32%; with Mus musculus [12] it was 25.21%; in the test with Mus musculus [13], 20.56%.
